Consider 22 compounds from patent US20090099243A1, “ORGANIC COMPOUNDS” (priority 2007, published 2009).

Structures are written as SMILES.

The target in one experiment is T1, recombinant human NPY Y2 receptors (Homo sapiens, UniProt P49146).
T1 construct: expressed in transfected cells; host or cells: CHO-C4 cells (membrane preparation)
T1 sequence (P49146 1-381): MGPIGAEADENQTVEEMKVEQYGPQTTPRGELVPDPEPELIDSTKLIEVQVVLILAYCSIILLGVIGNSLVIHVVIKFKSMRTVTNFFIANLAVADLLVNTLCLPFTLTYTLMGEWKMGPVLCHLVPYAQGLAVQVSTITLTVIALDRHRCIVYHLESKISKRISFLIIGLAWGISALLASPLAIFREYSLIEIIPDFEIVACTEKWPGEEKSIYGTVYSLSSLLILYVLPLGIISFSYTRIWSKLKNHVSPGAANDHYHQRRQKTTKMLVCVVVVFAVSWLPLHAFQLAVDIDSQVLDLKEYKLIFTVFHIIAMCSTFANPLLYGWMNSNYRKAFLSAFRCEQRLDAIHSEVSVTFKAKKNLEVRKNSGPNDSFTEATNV
The experiment in a line: Scintillation proximity [35S]GTPγS binding assay (inhibition of 0.5 nM NPY-stimulated [35S]GTPγS binding). The settings on record: 10 μM compound, CHO-C4 membranes. It is filed as biochemical. On the procedure: Preparation of Membranes: CHO—C4 cells expressing recombinant human NPY Y2 receptors were used to prepare membranes for the GTPγS assay. Cells were grown to 80-95% confluency on 15-cm (225 cm^2) tissue culture plates. After aspiration of the culture medium, cells were washed twice with 18 ml ice-cold phosphate-buffered saline (PBS), scraped off and suspended in 3 ml ice-cold PBS in pre-cooled centrifuge tubes. The dishes were rinsed with 2 ml ice-cold PBS per dish and the washings were combined with the PBS cell suspension from above. Cells pooled from 5-7 dishes were centrifuged for 5 min at 10,000 rpm (12,000 g) in a Sorvall RC5B centrifuge using an SS34 rotor at 4° C. The cell pellet was resuspended in 5 ml ice-cold buffer (20 mM HEPES, 10 mM EDTA; pH 7.4) by vortexing (2-5 sec), homogenized using a Polytron (step 4 for 20-30 sec), and ice-cold buffer added to 25 ml. The suspension was centrifuged again for 20 min at 18,000 rpm (39,000 g) at 4° C. and the pellet resuspended in 5 ml ice-cold buffer (20 mM HEPES, 0.1 mM EDTA; pH 7.4) by vortexing (2-5 sec), homogenized with a Polytron (step 4 for 10 sec), and ice-cold buffer added to 25 ml. The suspension was centrifuged a third time for 20 min at 18,000 rpm (39,000 g) at 4° C. The pellet was resuspend in 1 ml ice-cold buffer (20 mM Hepes, 0.1 mM EDTA; pH 7.4) by vortexing (5-8 sec). Two to five resuspended pellets were combined and homogenized using a Polytron (step 4 for 15-25 sec). A small aliquot (20-50 μl) was removed for protein determination by the Coomassie Plus Protein Assay Reagent (Pierce) using BSA as standard. The membrane suspension was aliquoted in pre-cooled (on dry ice) Eppendorf tubes (0.25-1 ml/tube affording approximately 0.5-2 mg of membrane protein/tube). The pellets were frozen and stored at −80° C.
Scintillation proximity [^35S]GTPγS binding assay: Frozen membranes from CHO—C4 cells expressing recombinant human NPY Y2 receptors (2 mg for four 96-well plates) were thawed on ice. Thawed membranes were pipetted into 10 ml of assay buffer (20 mM. HEPES, 10 mM MgCl2, 100 mM NaCl, pH 7.4) and homogenized briefly using a Polytron. The final assay mixture was prepared in 96-well microtiter plates (Isoplate Wallac, Perkin Elmer). The composition of the assay mixtures in a final volume of 250 μl per well was as follows: 20 mM HEPES, 10 mM MgCl2, 100 mM NaCl, pH 7.4, 30 μM GDP, 1 mg/ml BSA (added fresh), 5 μg membrane protein, 1.5 mg Wheatgerm agglutinin SPA beads (Amersham), 0.45 nM [^35S]GTPγS (Amersham, SJ1308, 1000 Ci/mmol, stabilized solution), and the test compounds (agonists and/or antagonists) at the appropriate concentrations. The samples were incubated at room temperature for 90 min by shaking, after which the SPA beads were sedimented by centrifugation in an Eppendorf 5804 centrifuge at 2700 rpm for 10 min at room temperature. After 60 min the plates were counted in a TopCount (Canberra). Basal [^35S]GTPγS binding was measured in the absence of agonist (NPY). Non-specific binding was measured in the presence of excess (10 μM) unlabelled GTPγS (Sigma). Nonspecific binding never exceeded 10% of basal binding and was thus not subtracted from the experimental data. Antagonists were tested for the inhibition of 0.5 nM NPY-stimulated [^35S]GTPγS binding. Antagonist inhibition curves were analyzed by non-linear regression using GraphPad Prism software (Version 4.0, GraphPad Software Inc., CA, USA).
Antagonistic activity of compounds of the present invention was examined by the Scintillation proximity [35S]GTPγS binding assay as described above (inhibition of 0.5 nM NPY-stimulated [^35S]GTPγS binding). The table below represents percentages of inhibition at a concentration of 10 μM.
On to `Cc1noc(C)c1CC(=O)Nc1ccc(C(=O)CN2C(=O)NC(c3ccccc3)(c3ccccc3)C2=O)cc1` [Example 27, 2-(3,6-Dimethyl-isoxazol-4-yl)-N-{4-[2-(2,5-dioxo-4,4-diphenyl-imidazolidin-1-yl)-acetyl]-phenyl}-acetamide], for which the “[%] inhibiton at 10 μM” value came out at 96%.

Take `CCCC1(c2ccccc2)NC(=O)N(CC(=O)c2ccc(NC(=O)C(CC)CC)cc2)C1=O` (single isomer, unassigned; (-)) [Example 31]: the “[%] inhibiton at 10 μM” value is on record as 97%.

For `CCCC1(c2ccccc2)NC(=O)N(CC(=O)c2ccc(NC(=O)Cc3c(C)noc3C)cc2)C1=O` (single isomer, unassigned; (-)) [Example 29], the “[%] inhibiton at 10 μM” value is listed as 99%.

Consider `Cc1noc(C)c1NC(=O)Nc1ccc(C(=O)CN2C(=O)NC(c3ccccc3)(c3ccccc3)C2=O)c(F)c1` [Example 28, 1-(3,5-Dimethyl-isoxazolyl-4-yl)-3-{4-[2-(2,5-dioxo-4,4-diphenyl-imidazolidin-1-yl)-acetyl]-3-fluoro-phenyl}-urea], for which the “[%] inhibiton at 10 μM” value was found to be 98%.

Regarding `CCCC1(c2ccccc2)NC(=O)N(CC(=O)c2ccc(NC(=O)C(CC)CC)cc2)C1=O` (single isomer, unassigned; (+)) [Example 32], the “[%] inhibiton at 10 μM” value amounted to 90%.

Still in this experiment, the particulars now being: 10 μM compound, CHO-C4 membranes, read-out: [%] inhibiton at 10 μM.
With `CCC(CC)C(=O)Nc1ccc(C(=O)CN2C(=O)NC(c3ccccc3)(c3ccccc3)C2=O)c(F)c1` [Example 34, N-{4-[2-(2,5-Dioxo-4,4-diphenyl-imidazolidin-1-yl)-acetyl]-3-fluoro-phenyl}-2-ethyl-butyramide], the inhibition at 10 µM is 90%.

Consider `CCCC1(c2ccccc2)NC(=O)N(CC(=O)c2ccc(NC(=O)C3CCCN3)cc2)C1=O` (stereo not shown) [Example 23, Pyrrolidine-2-carboxylic acid {4-[2-(2,5-dioxo-4-phenyl-4-propyl-imidazolidin-1-yl)-acetyl]-phenyl}-amide], for which the inhibition at 10 µM is 36%.

Regarding `CC(C)CC(=O)Nc1ccc(C(=O)CN2C(=O)NC(c3ccccc3)(c3ccccc3)C2=O)c(F)c1` [Example 9, N-{4-[2-(2,5-Dioxo-4,4-diphenyl-imidazolidin-1-yl)-acetyl]-3-fluoro-phenyl}-3-methyl-butyramide], the inhibition at 10 µM was 83%.

For the compound `COc1ccc(F)cc1CC(=O)Nc1ccc(C(=O)CN2C(=O)NC(c3ccccc3)(c3ccccc3)C2=O)cc1` [Example 50, N-{4-[2-(2,5-Dioxo-4,4-diphenyl-imidazolidin-1-yl)acetyl]-phenyl}-2-(5-fluoro-2-methoxy-phenyl)-acetamide], the inhibition at 10 µM turned out to be 80%.

For the compound `COc1ccccc1CC(=O)Nc1ccc(C(=O)CN2C(=O)NC(c3ccccc3)(c3ccc(C)cc3)C2=O)cc1` (racemic) [Example 40, (±)-N-{4-[2-(2,5-Dioxo-4-phenyl-4-p-tolyl-imidazolidin-1-yl)-acetyl]-phenyl}-2-(2-methoxy-phenyl)-acetamide], the inhibition at 10 µM was found to be 70%.

On to `CCC1(c2ccccc2)NC(=O)N(Cc2ccc(NC(=O)Nc3c(C)noc3C)cc2)C1=O` (racemic) [Example 19, (±)-1-(3,5-Dimethyl-isoxazol-4-yl)-3-[4-(4-ethyl-2,5-dioxo-4-phenyl-imidazolidin-1-ylmethyl)-phenyl]-urea], for which the inhibition at 10 µM came out at 32%.

For `Cc1ccc(C2(c3ccccc3)NC(=O)N(CC(=O)c3ccc(NC(=O)Nc4ccccc4F)cc3)C2=O)cc1` (racemic) [Example 39, (±)-1-{4-[2-(2,5-Dioxo-4-phenyl-4-p-tolyl-imidazolidin-1-yl)-acetyl]-phenyl}-3-(2-fluoro-phenyl)-urea], the inhibition at 10 µM came to 44%.

With `CCC(=O)Nc1ccc(C(=O)CN2C(=O)NC(c3ccc(F)cc3)(c3ccc(F)cc3)C2=O)cc1` [Example 12, N-(4-{2-[4,4-Bis-(4-fluoro-phenyl)-2,5-dioxo-imidazolidin-1-yl]-acetyl}-phenyl)-propionamide], the inhibition at 10 µM amounted to 42%.

`CCCC1(c2ccccc2)NC(=O)N(CC(=O)c2ccc(NC(=O)C(CC)CC)cc2)C1=O` (racemic) [Example 24, (±)-N-{4-[2-(2,5-Dioxo-4-phenyl-4-propyl-imidazolidin-1-yl)-acetyl]-phenyl}-2-ethyl-butyramide]: the inhibition at 10 µM was found to be 96%.

With `Cc1ccc(C2(c3ccccc3)NC(=O)N(CC(O)c3ccc(NC(=O)CC(C)C)cc3)C2=O)cc1` (racemic) [Example 14, (±)-N-{4-[2-(2,5-Dioxo-4-phenyl-4-p-tolyl-imidazolidin-1-yl)-1-hydroxy-ethyl]-phenyl}-3-methyl-butyramide], the inhibition at 10 µM amounted to 58%.

With `CCCC1(c2ccccc2)NC(=O)N(CC(=O)c2ccc(NC(=O)Nc3ccccc3F)cc2)C1=O` (racemic) [Example 44, (±)-1-{4-[2-(2,5-Dioxo-4-phenyl-4-propyl-imidazolidin-1-yl)-acetyl]-phenyl}-3-(2-fluoro-phenyl)-urea], the inhibition at 10 µM is 56%.

For the compound `CCCC1(c2ccccc2)NC(=O)N(CC(=O)c2ccc(NC(=O)CC(C)C)cc2F)C1=O` (racemic) [Example 5, (±)-N-{4-[2-(2,5-Dioxo-4-phenyl-4-propyl-imidazolidin-1-yl)-acetyl]-3-fluoro-phenyl}-3-methyl-butyramide], the inhibition at 10 µM came out at 63%.

With `CCC1(c2ccccc2)NC(=O)N(CC(=O)c2ccc(NC(=O)CC(C)C)cc2F)C1=O` (racemic) [Example 13, (±)-N-{4-[2-(4-Ethyl-2,5-dioxo-4-phenyl-imidazolidin-1-yl)-acetyl]-3-fluoro-phenyl}-3-methyl-butyramide], the inhibition at 10 µM turned out to be 78%.

As for `CCCC1(c2ccccc2)NC(=O)N(CC(=O)c2ccc(NC(=O)C3CCOC3)cc2)C1=O` (stereo not shown) [Example 22, Tetrahydro-furan-3-carboxylic acid {4-[2-(2,5-dioxo-4-phenyl-4-propyl-imidazolidin-1-yl)-acetyl]-phenyl}-amide], the inhibition at 10 µM came to 83%.

For the compound `CCCC1(c2ccccc2)NC(=O)N(CC(=O)c2ccc(NC(=O)Cc3c(C)noc3C)cc2)C1=O` (racemic) [Example 21, (±)-2-(3,5-Dimethyl-isoxazol-4-yl)-N-{4-[2-(2,5-dioxo-4-phenyl-4-propyl-imidazolidin-1-yl)-acetyl]-phenyl}-acetamide], the inhibition at 10 µM was 97%.

Consider `Cc1ccc(C2(c3ccccc3)NC(=O)N(CC(=O)c3ccc(NC(=O)Cc4c(C)noc4C)cc3)C2=O)cc1` (racemic) [Example 42, (±)-2-(3,5-Dimethyl-isoxazol-4-yl)-N-{4-[2-(2,5-dioxo-4-phenyl-4-p-tolyl-imidazolidin-1-yl)-acetyl]-phenyl}-acetamide], for which the inhibition at 10 µM amounted to 99%.

Turning to `CCCC1(c2ccccc2)NC(=O)N(CC(=O)c2ccc(NC(=O)Nc3c(C)noc3C)cc2F)C1=O` (racemic) [Example 1, (±)-1-(3,5-Dimethyl-isoxazol-4-yl)-3-{4-[2-(2,5-dioxo-4-phenyl-4-propyl-imidazolidin-1-yl)-acetyl]-3-fluoro-phenyl}-urea], the inhibition at 10 µM was 105%.
